The text below walks through data of patent US20100151021A1 (priority 2008, published 2010).

Data set [1] concerns psychosis associated with PD. The following applies: initial open-label studies; cited from earlier work.
The nature of data set [2]: Solubility of Melperone HCl in media. It is filed as physicochemical. The following applies: for solubility: phosphate buffer, aqueous buffer.
Data set [3] concerns psychosis in patients with PD. The following applies: cited from earlier work.
For data set [4] the following is noted: clinical; cited from earlier work.
For data set [5] the following is noted: cited from earlier work.

On to `OCCOCCN1CCN(C2=Nc3ccccc3Sc3ccccc32)CC1` [quetiapine], for which, in data set [1], the “efficacy in psychosis associated with PD” value is reported as “has shown efficacy” and the “patients with worsening of motor symptoms of PD” value is “up to 30%”.
As a reminder, the solubility is the dissolved amount per volume that the medium holds. For `CC1CCN(CCCC(=O)c2ccc(F)cc2)CC1.Cl` [Melperone HCl, 1-(4-fluorophenyl)-4-(4-methyl-1-piperidinyl)-1-butanone hydrochloride], the figures for the solubility in data set [2] (pH 7.0 (phosphate)) and in data set [2] (pH 7.8 (phosphate)) were over 100 mg/mL and 25.6 mg/mL, respectively.
Take `CC1CCN(CCCC(=O)c2ccc(F)cc2)CC1` [melperone]: the Solubility in words entry was “freely soluble” in data set [2] (aqueous buffers at acidic to neutral pH conditions) and “poorly soluble” in data set [2] (higher pH values (above pH=7.5)). Further, the “time over which efficacy was maintained” value in data set [3] (mean daily dose of 37.5 mg) is listed as 2 years. In data set [3] (patients with PD), the “efficacy in the treatment of psychosis” value is “has shown efficacy”. Besides, in data set [3] (patients with PD), the onset of efficacy entry is listed as “within a week”. The “incidence of extrapyramidal side effect (EPS) or tardive dyskinesia” value in data set [4] was “low incidence”. Moreover, in data set [5] (oral tablet administration), the “mean Tmax” value is 1.5 to 3.0 h. In addition, the absolute oral bioavailability in data set [5] (oral) is listed as 50-70%.
